The values below come from patent US9790217B2, “Pyridinyloxy- and phenyloxy-pyrazolyl compounds” (Hoffmann-La Roche Inc., priority 2014, dated 2017).

Experiment [1] deals with human CYP11B1 (Homo sapiens (Human), UniProt P15538). Description: G-402 cellular enzyme assay, human CYP11B1 (cortisol release, HTRF). Type of experiment: cell-based. To be noted: G-402 cells expressing human CYP11B1; 1 μM Deoxycortisol. The text has this: (§1) Herein we identified the use of the G-402 cell line as a host cell to ectopically express (transiently or stably) enzymes of the CYP11 family. Specifically we developed stable G-402 cells expressing ectopically human CYP11B1, human CYP11B2, human CYP11A1, cynmolgus CYP11B1 or cynomolgus CYP11B2 enzyme activity. Importantly the identified cell line G-402 expresses co-factors (adrenodoxin and adrenodoxin reductase) important for the activity of the CYP11 family and no relevant enzyme activity of the CYP11 family (in comparison to H295R cells) was detected in these cells. Therefore the G-402 cell line is uniquely suited as a host cell for the ectopic expression of enzymes from the CYP11 family.
(§2) G-402 cells can be obtained from ATCC (CRL-1440) and were originally derived from a renal leiomyoblastoma.
(§3) The expression plasmids contains the ORF for either human/cyno CYP11B1 or CYP11B2 under the control of a suitable promoter (CMV-promoter) and a suitable resistance marker (neomycin). Using standard techniques the expression plasmid is transfected into G-402 cells and these cells are then selected for expressing the given resistance markers. Individual cell-clones are then selected and assessed for displaying the desired enzymatic activity using 11-Deoxycorticosterone (Cyp11B2) or 11-Deoxycortisol (Cyp11B1) as a substrate.
(§4) G-402 cells expressing CYP11 constructs were established as described above and maintained in McCoy's 5a Medium Modified, ATCC Catalog No. 30-2007 containing 10% FCS and 400 μg/ml G418 (Geneticin) at 37° C. under an atmosphere of 5% CO2/95% air. Cellular enzyme assays were performed in DMEM/F12 medium containing 2.5% charcoal treated FCS and appropriate concentration of substrate (0.3-10 uM 11-Deoxycorticosterone, 11-Deoxycortisol or Corticosterone). For assaying enzymatic activity, cells were plated onto 96 well plates and incubated for 16 h. An aliquot of the supernatant is then transferred and analyzed for the concentration of the expected product (Aldosterone for CYP11B2; Cortisol for CYP11B1). The concentrations of these steroids can be determined using HTRF assays from CisBio analyzing either Aldosterone or Cortisol.
(§5) Inhibition of the release of produced steroids can be used as a measure of the respective enzyme inhibition by test compounds added during the cellular enzyme assay. The dose dependent inhibition of enzymatic activity by a compound is calculated by means of plotting added inhibitor concentrations (x-axes) vs. measured steroid/product level (y-axes). The inhibition is then calculated by fitting the following 4-parameter sigmoidal function (Morgan-Mercer-Flodin (MMF) model) to the raw data points using the least squares method:
(§6) [formula] wherein, A is the maximum y value, B is the EC50 factor determined using XLFit, C is the minimum y value and D is the slope value.
(§7) EC50 values for compounds claimed herein were tested with the G402-based assay system described. Cyp11B2 enzyme activity was tested in presence of 1 μM Deoxycorticosterone and variable amounts of inhibitors; Cyp11B1 enzyme activity was tested in presence of 1 μM Deoxycortisol and variable amounts of inhibitors.
On the technique in general: Time-resolved FRET reads energy transfer from a long-lived donor to a nearby acceptor.

Experiment [2] concerns the target human CYP11B2 (Homo sapiens (Human), UniProt P19099). Description: G-402 cellular enzyme assay, human CYP11B2 (aldosterone release, HTRF). The experiment is classed as cell-based. To be noted: G-402 cells expressing human CYP11B2; 1 μM Deoxycorticosterone.
From the text: as §1, §2, §3, §4, §5, §6, §7

Chain of human CYP11B1 (P15538 25-503): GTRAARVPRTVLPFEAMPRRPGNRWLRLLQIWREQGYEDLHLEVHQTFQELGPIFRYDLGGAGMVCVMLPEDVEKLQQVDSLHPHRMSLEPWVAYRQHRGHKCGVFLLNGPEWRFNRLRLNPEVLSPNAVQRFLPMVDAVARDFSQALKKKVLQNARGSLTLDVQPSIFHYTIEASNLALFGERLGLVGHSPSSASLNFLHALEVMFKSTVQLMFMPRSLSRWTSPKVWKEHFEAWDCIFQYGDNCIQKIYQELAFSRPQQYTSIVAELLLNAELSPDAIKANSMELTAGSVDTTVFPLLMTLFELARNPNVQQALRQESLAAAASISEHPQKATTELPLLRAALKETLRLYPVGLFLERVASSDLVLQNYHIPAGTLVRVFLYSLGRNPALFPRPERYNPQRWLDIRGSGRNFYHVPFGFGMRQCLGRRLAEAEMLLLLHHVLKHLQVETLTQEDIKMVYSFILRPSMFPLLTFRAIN
Chain of human CYP11B2 (P19099 25-503): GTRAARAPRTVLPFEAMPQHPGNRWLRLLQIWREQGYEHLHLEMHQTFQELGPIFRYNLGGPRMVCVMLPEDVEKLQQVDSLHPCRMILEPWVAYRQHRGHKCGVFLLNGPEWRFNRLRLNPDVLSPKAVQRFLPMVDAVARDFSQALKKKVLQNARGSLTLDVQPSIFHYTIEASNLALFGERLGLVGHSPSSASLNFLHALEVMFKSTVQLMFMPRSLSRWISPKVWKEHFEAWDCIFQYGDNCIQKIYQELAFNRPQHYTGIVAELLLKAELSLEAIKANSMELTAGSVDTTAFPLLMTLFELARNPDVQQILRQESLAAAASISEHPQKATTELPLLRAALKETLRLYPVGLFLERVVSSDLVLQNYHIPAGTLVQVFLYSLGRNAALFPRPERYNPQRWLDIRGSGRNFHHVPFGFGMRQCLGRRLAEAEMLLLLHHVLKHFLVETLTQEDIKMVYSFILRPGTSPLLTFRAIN

For the molecule `N#Cc1ccc(Oc2cn[nH]c2-c2ccccc2Cl)cc1` [Example 25, 4-[[5-(2-Chlorophenyl)-1H-pyrazol-4-yl]oxy]benzonitrile], the values for the EC50 in experiment [1] and in experiment [2] were 18.5 nM and 0.2 nM, respectively.

With `Fc1cc(Cl)ccc1-c1[nH]ncc1Oc1ccc(C(F)(F)F)cc1` [Example 27, 5-(4-Chloro-2-fluorophenyl)-4-[4-(trifluoromethyl)phenoxy]-1H-pyrazole], the EC50 (usually the concentration giving half of the maximal effect) amounted to 3320 nM in experiment [1] and 575 nM in experiment [2].

`N#Cc1ccc(Oc2cn[nH]c2-c2ccccc2Cl)c(F)c1` [Example 28, 4-[[5-(2-Chlorophenyl)-1H-pyrazol-4-yl]oxy]-3-fluorobenzonitrile]: the EC50 in experiment [1] stood at 134 nM; in experiment [2], 1.5 nM.

In the case of `N#Cc1ccc(Oc2cn[nH]c2-c2cccc(F)c2F)cc1` [Example 29, 4-[[5-(2,3-Difluorophenyl)-1H-pyrazol-4-yl]oxy]benzonitrile], the EC50 in experiment [1] amounted to 161 nM; in experiment [2], 7.5 nM.

Turning to `N#Cc1ccc(Oc2cn[nH]c2-c2cccc(Cl)c2F)cc1` [Example 30, 4-[[5-(3-Chloro-2-fluorophenyl)-1H-pyrazol-4-yl]oxy]benzonitrile], the EC50 turned out to be 191 nM in experiment [1] and 8 nM in experiment [2].

As to `Fc1c(Cl)cccc1-c1[nH]ncc1Oc1ccc(Cl)cc1` [Example 31, 5-(3-Chloro-2-fluorophenyl)-4-(4-chlorophenoxy)-1H-pyrazole], the EC50 in experiment [1] worked out at 1820 nM; in experiment [2], 191 nM.

As for `N#Cc1ccc(Oc2cn[nH]c2-c2cccc(Cl)c2)cc1` [Example 32, 4-[[5-(3-Chlorophenyl)-1H-pyrazol-4-yl]oxy]benzonitrile], the EC50 in experiment [1] turned out to be 542 nM; in experiment [2], 45.8 nM.

Turning to `COC(=O)c1cccc(-c2[nH]ncc2Oc2ccc(C#N)cc2)c1` [Example 33, Methyl 3-[4-(4-cyanophenoxy)-1H-pyrazol-3-yl]benzoate], the EC50 in experiment [1] worked out at 31.3 nM; in experiment [2], 17.5 nM.

On to `Fc1cccc(-c2[nH]ncc2Oc2ccc(Cl)cc2)c1Cl` [Example 34, 5-(2-Chloro-3-fluorophenyl)-4-(4-chlorophenoxy)-1H-pyrazole], for which the concentration giving a half-maximal response (EC50) in experiment [1] amounted to 262 nM; in experiment [2], 39.2 nM.

Turning to `N#Cc1ccc(Oc2cn[nH]c2-c2cccc(F)c2Cl)cc1` [Example 35, 4-[[5-(2-Chloro-3-fluorophenyl)-1H-pyrazol-4-yl]oxy]benzonitrile], the figures for the EC50 in experiment [1] and in experiment [2] were 68.6 nM and 1.5 nM, respectively.

Turning to `N#Cc1ccc(Oc2cn[nH]c2-c2cccc(OCc3ccccc3)c2)cc1` [Example 36, 4-[[5-(3-Phenylmethoxyphenyl)-1H-pyrazol-4-yl]oxy]benzonitrile], the EC50 in experiment [1] turned out to be 52.9 nM; in experiment [2], 16.8 nM.

Take `N#Cc1ccc(Oc2cn[nH]c2-c2ccnc(Cl)c2)cc1` [Example 37, 4-[[5-(2-Chloropyridin-4-yl)-1H-pyrazol-4-yl]oxy]benzonitrile]: the figures for the EC50 in experiment [1] and in experiment [2] were 10500 nM and 317 nM, respectively.

On to `COC(=O)c1cccc(-c2[nH]ncc2Oc2ccc(C#N)cc2F)c1` [Example 38, Methyl 3-[4-(4-cyano-2-fluorophenoxy)-1H-pyrazol-3-yl]benzoate], for which the figures for the EC50 in experiment [1] and in experiment [2] were 321 nM and 31.9 nM, respectively.

As for `CCOC(=O)c1ccccc1-c1[nH]ncc1Oc1ccc(C#N)cc1` [Example 39, Ethyl 2-[4-(4-cyanophenoxy)-1H-pyrazol-3-yl]benzoate], the EC50 in experiment [1] amounted to 1160 nM; in experiment [2], 34.2 nM.

In the case of `N#Cc1ccc(Oc2cn[nH]c2-c2ccccc2C(=O)O)cc1` [Example 40, 2-[4-(4-Cyanophenoxy)-1H-pyrazol-3-yl]benzoic acid], the figures for the EC50 in experiment [1] and in experiment [2] were > 30000 nM and 1500 nM, respectively.

Take `N#Cc1ccc(Oc2cn[nH]c2-c2ccccc2OCc2ccccc2)cc1` [Example 41, 4-[[5-(2-Phenylmethoxyphenyl)-1H-pyrazol-4-yl]oxy]benzonitrile]: the values for the 50% effective concentration (EC50) in experiment [1] and in experiment [2] were 0.5 nM and 0.1 nM, respectively.

Turning to `CS(=O)(=O)c1ccc(-c2[nH]ncc2Oc2ccc(Cl)cc2)c(Cl)c1` [Example 42, 5-(2-Chloro-4-methylsulfonylphenyl)-4-(4-chlorophenoxy)-1H-pyrazole], the values for the EC50 in experiment [1] and in experiment [2] were 345 nM and 29.8 nM, respectively.

With `CS(=O)(=O)c1ccc(-c2[nH]ncc2Oc2ccc(C#N)cc2)c(Cl)c1` [Example 43, 4-[[5-(2-Chloro-4-methylsulfonylphenyl)-1H-pyrazol-4-yl]oxy]benzonitrile], the EC50 stood at 558 nM in experiment [1] and 41.6 nM in experiment [2].

As for `CC(=O)N1CCN(C(=O)c2cccc(-c3[nH]ncc3Oc3ccc(C#N)cc3)c2)CC1` [Example 44, 4-[[3-[3-(4-Acetylpiperazine-1-carbonyl)phenyl]-1H-pyrazol-4-yl]oxy]benzonitrile], the figures for the EC50 in experiment [1] and in experiment [2] were > 30000 nM and 313 nM, respectively.

For the molecule `N#Cc1ccc(Oc2cn[nH]c2-c2cccc(C(=O)N3CCOCC3)c2)cc1` [Example 45, 4-[[3-[3-(Morpholine-4-carbonyl)phenyl]-1H-pyrazol-4-yl]oxy]benzonitrile], the EC50 in experiment [1] worked out at 2400 nM; in experiment [2] it was 397 nM.

With `CS(=O)(=O)N1CCN(C(=O)c2cccc(-c3[nH]ncc3Oc3ccc(C#N)cc3)c2)CC1` [Example 46, 4-[[3-[3-(4-Methylsulfonylpiperazine-1-carbonyl)phenyl]-1H-pyrazol-4-yl]oxy]benzonitrile], the concentration for a half-maximal effect (EC50) in experiment [1] turned out to be 10700 nM; in experiment [2] it was 1050 nM.

Take `N#Cc1ccc(Oc2cn[nH]c2-c2cccc(C(=O)N3CC(CO)C3)c2)cc1` [Example 47, 4-[[3-[3-[3-(Hydroxymethyl)azetidine-1-carbonyl]phenyl]-1H-pyrazol-4-yl]oxy]benzonitrile]: the EC50 came out at 159 nM in experiment [1] and 281 nM in experiment [2].

Regarding `N#Cc1ccc(Oc2cn[nH]c2-c2cccc(O)c2)cc1` [Example 48, 4-[[3-(3-Hydroxyphenyl)-1H-pyrazol-4-yl]oxy]benzonitrile], the EC50 in experiment [1] is 83.4 nM; in experiment [2], 20.4 nM.

For `N#Cc1ccc(Oc2cn[nH]c2-c2cccc(CO)c2)cc1` [Example 49, 4-[[3-[3-(Hydroxymethyl)phenyl]-1H-pyrazol-4-yl]oxy]benzonitrile], the EC50 in experiment [1] is 85 nM; in experiment [2] it was 13.2 nM.

On to `N#Cc1ccc(Oc2cn[nH]c2-c2cccc(OCc3ccccn3)c2)cc1` [Example 50, 4-[[3-[3-(Pyridin-2-ylmethoxy)phenyl]-1H-pyrazol-4-yl]oxy]benzonitrile], for which the values for the concentration for a half-maximal effect (EC50) in experiment [1] and in experiment [2] were 51.6 nM and 10.4 nM, respectively.

For the molecule `N#Cc1ccc(Oc2cn[nH]c2-c2cccc(OCc3cccnc3)c2)cc1` [Example 51, 4-[[3-[3-(Pyridin-3-ylmethoxy)phenyl]-1H-pyrazol-4-yl]oxy]benzonitrile], the figures for the EC50 in experiment [1] and in experiment [2] were 51.3 nM and 9.5 nM, respectively.

Turning to `Cc1cc(COc2cccc(-c3[nH]ncc3Oc3ccc(C#N)cc3)c2)on1` [Example 52, 4-[[3-[3-[(3-Methyl-1,2-oxazol-5-yl)methoxy]phenyl]-1H-pyrazol-4-yl]oxy]benzonitrile], the EC50 amounted to 32.3 nM in experiment [1] and 14.8 nM in experiment [2].

For `Cn1nncc1COc1cccc(-c2[nH]ncc2Oc2ccc(C#N)cc2)c1` [Example 53, 4-[[3-[3-[(3-Methyltriazol-4-yl)methoxy]phenyl]-1H-pyrazol-4-yl]oxy]benzonitrile], the EC50 in experiment [1] is 198 nM; in experiment [2] it was 23.8 nM.

Consider `N#Cc1ccc(Oc2cn[nH]c2-c2cccc(OCc3ccncc3)c2)cc1` [Example 54, 4-[[3-[3-(Pyridin-4-ylmethoxy)phenyl]-1H-pyrazol-4-yl]oxy]benzonitrile], for which the EC50 in experiment [1] is 46.5 nM; in experiment [2] it was 3.5 nM.

As to `N#Cc1ccc(Oc2cn[nH]c2-c2cccc(OCc3ccnc(Cl)c3)c2)cc1` [Example 55, 4-[[3-[3-[(2-Chloropyridin-4-yl)methoxy]phenyl]-1H-pyrazol-4-yl]oxy]benzonitrile], the EC50 was determined as 288 nM in experiment [1] and 33.1 nM in experiment [2].
